Assay results: patent US11274132B2, “Combined preparations of PKM2 modulators and HMGB1” (Ruprecht-Karls-Universität Heidelberg, priority 2015, dated 2022)

How the values were obtained:
[1] = system: glucose flux (glycolysis); experiment: Glycolysis: conversion of 5-3H-Glucose to 3H2O; format: cell-based, human; conditions: HMGB1 80 nM, 24 h
Experimental: (§1) Lactate derived from the metabolism of ^13C6-D-glucose or ^13C5-glutamine was determined by comparing the CH3 group intensities of labeled and non-labeled lactate in NMR. Mitochondrial respiration was measured using an Oroboros 1 oxygraph system. Glycolysis was measured by monitoring the conversion of 5-^3H-Glucose to ^3H2O. Incorporation of ^14C into RNA ribose from U-^14C-labelled glucose was taken as glucose utilization in the pentose phosphate shunt. Enzymatic activities were determined in subcellular fractions as previously described^24.

colorectal cancer cells = experiment: Crystal violet cytotoxicity assay, cell lines not given; format: cell-based; conditions: HMGB1 80 nM, 72 h
Experimental: (§2) Human colon carcinoma cell lines SW480, HCT116, HT29 and Caco2, the human glioblastoma cell line U251MG and the Natural killer cell line NK-92 Cl were purchased from ATCC. Cell lines were regularly tested for contamination by multiplex PCR performed in the Genomics and Proteomics Core Facility 2 (DKFZ, Heidelberg, Germany). For experiments, cells were cultured for no more than 10 passages. Rho zero cells were generated as described earlier 1. (Gdynia, G. et al. Danger signaling protein HMGB1 induces a distinct form of cell death accompanied by formation of giant mitochondria. Cancer research 70, 8558-8568). Cells used in the experiments were cultured in RPMI (#1640, colon carcinomas, NK cells) or DMEM high glucose (#41965-039, glioblastoma cells) medium. Rho zero cells were generated as described earlier (Gdynia, G. et al. ibd.). Briefly, cells were cultured in RPMI medium (10% FCS, 1% P/S) supplemented with 250 ng/ml ethidiumbromide, 50 μg/ml L-pyruvate and 5 mg/ml uridine over a period of 12 weeks. For cytotoxicity measurements, cells were cultured in 96-well plates, treated with recombinant human HMGB1 protein (Sigma-Aldrich®), glycyrrhizinic acid ((3β, 18α)-30-hydroxy-11, 30-dioxoolean-12-en-3-yl 2-O-β-D-glucopyranuronosyl-β-D-glucopyranosiduronic acid)) (Sigma-Aldrich®), 10 μM (non-toxic) or 100 μM (cytotoxic) P-M2tide (aa sequence: GGAVDDDpYAQFANGG; #BML-P239-0001; Enzo Life Sciences) or 100 μM ML-265 (Cayman Chemical), then cell viability was assessed by crystal violet staining (Gillies, R. J., Didier, N. & Denton, M. Determination of cell number in monolayer cultures. Analytical biochemistry 159, 109-113 (1986)). Malic enzyme 1 knock-down was performed with 40 nM siRNA using lipofectamine in 6-well plates followed by treatment with 80 nM HMGB1 for 72 h. Sequences of siRNA were: ME1, 5′-[…]-3′ and scrambled control 5′-CCUGCAGUACUUCAAGCGGtt-3′. PKM2 siRNA was from Santa Cruz. A nonspecific siRNA served as control (Dharmacon, Schwerte, Germany). For overexpression of PKM2 or ME1, cells were transfected with pCMV-PKM2 (Sino Biological Inc., Beijing, China) or pCMV-ME1 (OriGene, Rockville, Md., USA) using Lipofectamine 2000. For cytotoxicity measurements confluent cells were cultured in 96-well plates if not otherwise indicated. Cytotoxic activity of supernatants from stimulated NK cells was assessed in 96-well plates for 3 days with RPMI medium as reference. Recombinant human HMGB1 (10 ng, Sigma) suited as positive control. For mass isotopomer assays, cells were cultured in glucose- or glutamine-free medium supplemented with either uniformly labeled (U)-13C-D-glucose or U-13C-glutamine (Sigma-Aldrich®).

pentose phosphate shunt = experiment: Incorporation of 14C into RNA ribose from U-14C-labelled glucose; format: cell-based, human; conditions: HMGB1 80 nM, 24 h
Experimental: as §1

HT29 cells = experiment: Crystal violet cytotoxicity assay; format: cell-based
Experimental: as §2

[2] = system: SW480 colorectal cancer cells; experiment: Crystal violet cytotoxicity assay; format: cell-based; conditions: 72 h
Experimental: as §2

[3] = system: HCT116 colorectal cancer cells; experiment: Crystal violet cytotoxicity assay; format: cell-based; conditions: 72 h
Experimental: as §2

SW480 xenograft tumor = experiment: Xenograft tumor growth in nude mice; format: in vivo, mouse; conditions: 10 μg rhHMGB1 daily intraperitoneal for 2 weeks
Experimental: For animal studies six-week-old female and male athymic CD1 nude mice (Charles River, n=40) were injected subcutaneously with 5×10^6 SW480 or HT29 cells in 100 μl PBS in the right flank using a 30-gauge needle. Treatment was started when tumors were palpable. Daily intraperitoneal injections at the contralateral side for 2 weeks were done with 10 μg rhHMGB1 in 500 μl PBS or PBS only (control group) and/or 12.5 mg/kg/injection L-DON (Ovejera, A. A., Houchens, D. P., Catane, R., Sheridan, M. A. & Muggia, F. M. Efficacy of 6-diazo-5-oxo-L-norleucine and N-[N-gamma-glutamyl-6-diazo-5-oxo-norleucinyl]-6-diazo-5-oxo-norleucine against experimental tumors in conventional and nude mice. Cancer research 39, 3220-3224 (1979).). Tumor volume was measured by a calliper using the ellipsoid formula (length×width×height×½) as described (Tomayko, M. M. & Reynolds, C. P. Determination of subcutaneous tumor size in athymic (nude) mice. Cancer Chemother Pharmacol 24, 148-154 (1989).). After 2 weeks of treatment the animals were sacrificed.

[4] = NK cell derived HMGB1 approx. 16 nM, recombinant human HMGB1 80 nM

In the case of “HMGB1: recombinant human HMGB1 protein (Sigma-Aldrich); High Mobility Group Box 1 polypeptide, human, SEQ ID NO: 4”, the “glucose flux (5-3H-glucose turn-over)” value [1] is reported as “reduced at the enolase reaction step”, the “sensitivity of cells to HMGB1 after PKM2 down-regulation (siRNA)” value (colorectal cancer cells) is reported as “sensitized” and the “sensitivity of cells to HMGB1 after PKM2 overexpression” value (colorectal cancer cells) is reported as “more resistant”. For the same substance, the “flux of glycolytic intermediates into the pentose phosphate shunt” value (pentose phosphate shunt) was “increased flux”, the “sensitivity of cells to HMGB1” value (HT29 cells; low to intermediate HMGB1 concentrations (16 to 80 nM)) was “resistant” and the “sensitivity towards HMGB1 cytotoxicity after down-regulation of ME1” value (HT29 cells; siRNA knock-down of ME1, HMGB1 80 nM, 72 h) was “sensitization”. The “cell death (cytotoxicity)” value [2, 4] was “efficiently killed”, the “sensitivity of respiratory chain deficient (ρ0) cells to HMGB1” value ([2]; ρ0 SW480, HMGB1 160 nM) was “almost completely resistant” and the “cell death (cytotoxicity)” value [3, 4] was “efficiently killed”. For the same substance, the “sensitivity of respiratory chain deficient (ρ0) cells to HMGB1” value ([3]; ρ0 HCT116, HMGB1 160 nM) was “almost completely resistant” and the xenograft tumor growth (SW480 xenograft tumor) was “inhibited”.
